Source: patent publication US20240091191A1, “USES OF CORYLIN AND/OR NEOBAVAISOFLAVONE IN TREATING SYMPTOMS ASSOCIATED WITH SENESCENCE” (Chang Gung University, priority 2022, published 2024)

Experiments:
HaCaT cells [1] = test: UVB-induced DNA breakage analysis; assay type: cell-based; details: 100 μM pretreatment 24 hours, UVB 30 mJ/m^2
Experimental: HaCaT cells were seeded into a 12-well plate (7×10^4 cells/well), and incubated with 100 μM corylin or 100 μM neobavaisoflavone, or without drugs, for 24 hours, before subjected to UVB irradiation at 30 mJ/m^2. The irradiated cells were collected, washed, and mixed with 1% agarose gel solution 140 μl at 35° C., before being applied onto slides. The slides were placed at 4° C. for 1 hour for solidifying the gel, immersed in a lysis buffer for at least 1 hour and subsequently in an electrophoresis fluid for 40 minutes, and then subjected to gel-electrophoresis at 25 V for 20 minutes. The slides were immersed in a neutralizing solution for 5 minutes, mounted with 30 μl mounting medium with DAPI, and observed under a fluorescence microscope. The results were analyzed with the software OPEN COMET to quantify the breakage and the repair of the DNA in the cells.

HUVECs [2] = test: Population doubling level (PDL) of HUVECs; assay type: cell-based, human
Experimental: HUVECs were cultured in M199 medium supplemented with 4-(2-hydroxyethyl)-1-piperazineethanesulfonic acid (HEPES), endothelial cell growth supplement (ECGS; Millipore), heparin, NaHCO3, L-glutamine, sodium pyruvate, and 20% fetal bovine serum (FBS; final concentration). HaCaT cells were cultured in DMEM supplemented with 10% FBS and 2 mM glutamine. The cells were grown in an atmosphere of 5% CO2 at 37° C., and passaged to maintain under 90% confluency. The cells were propagated until senescence, and those in every passage were collected for further analysis, numbers of which were determined when sub-cultured.

HUVECs [3] = test: Senescence-associated (SA)-β-gal staining of HUVECs; assay type: cell-based, human; details: late stage HUVECs (PDL9), vs control without corylin
Experimental: HUVECs at 90% confluency were collected, washed, and fixed with 2% formaldehyde and 0.2% glutaraldehyde for 5 minutes. The cells were then subjected to staining by incubation with a staining solution (40 mmol/l citric acid, sodium phosphate, pH 6.0, 1 mg/ml 5-bromo-4-chloro-3-isolyl-β-D-galactoside (X-gal, Sigma), 5 mmol/l potassium ferrocyanide, 5 mmol/l potassium ferricyanide, 150 mmol/l NaCl, and 2 mmol/l MgCl2) at 37° C. for 18 hours. The results of SA-β-gal-positive cells were observed by microscopy, and were counted for over 300 cells in at least three independent fields.

HaCaT cells [4] = test: UVB-induced apoptosis analysis (crystal violet); assay type: cell-based; details: 5 μM corylin or 20 μM neobavaisoflavone 4 hours, UVB 14 mJ/m^2 four runs
Experimental: HaCaT cells were seeded into a 12-well plate (7×10^4 cells/well), and incubated with 5 μM corylin or 20 μM neobavaisoflavone, or without drugs, for 4 hours, before subjected to UVB irradiation at 14 mJ/m^2 for four runs. At 24 hours, the irradiated cells were collected, washed, and fixed with 4% paraformaldehyde, before being immersed in 0.5% crystal violet solution for 15 minutes at room temperature. The cells were washed, air-dried, photographed, and immersed in 50% ethanol containing 0.1% glacial acetic acid to remove the crystal violet dye. The absorbance at 550 nm was read by a microplate reader.

[5] = Body weight and food intake of aged HFD-fed mice; assay type: in vivo, mouse; details: entire course of the experiment
Experimental: (§1) All animal procedures were complied with relevant regulations and were conducted under approved protocols (Protocol #CGU15-150) by Research Guidelines for the Care and Use of Laboratory Animals, Chang Guan University. C57BL/6J male mice (34 weeks of age) were maintained at 23±1° C. and at humidity of 45-65% with a 12 h dark/light cycle. After reaching 40 weeks of age, the mice were randomly divided into two groups: Group I (HFD), fed a HFD with 54% fat (n=30), and Group II (HFD/C), fed a HFD containing corylin (1 g corylin/1 kg HFD) (or the dose of corylin was 50 mg/kg) (n=30).
(§2) The ability of corylin to delay the aging process in mice was examined in the present example. To this purpose, aged C57BL/6J mice (forty-week-old) were fed with a HFD or a HFD plus 0.1% (w/w) corylin (HFD/C) ad libitum for the rest of their lives.

HaCaT cells [6] = test: Intracellular NAD+ content; assay type: cell-based; details: 5 μM corylin or 20 μM neobavaisoflavone, 24 hours
Experimental: HaCaT cells were seeded into a 6-cm dish (4×10^5 cells/dish), and incubated with 5 μM corylin or 20 μM neobavaisoflavone, or without drugs, for 24 hours, before being harvested. The harvested cells were extracted with 250 μl of 1 M glacial formic acid saturated with butanol, incubated for 30 minutes on ice. Then, 62.5 μl of 100% TCA (w/v) was added to each sample, and the samples were incubated on ice for an additional 15 minutes. The samples were pelleted by centrifugation at 14,000×g for 5 minutes, and the supernatant was transferred to another eppendorf tube. The pellets were then washed with 125 μl of 20% TCA, and centrifuged, and the supernatant was combined with the aforementioned supernatant. The combined supernatants were used for the following tests. […] After incubation at 30° C. for 20 minutes, the absorbance of each sample was measured at 340 nm. The NAD^+ level of the cells in each supernatant sample was determined by the test sample (the alcohol ADH catalytic group) relative to the corresponding control sample (the water group, as the basal NADH level).

[7] = Pharmacokinetic analysis, serum level after corylin oral gavage; assay type: in vivo, mouse; details: mice
Experimental: The blood samples of the C57BL/6J male mice (n=4) were collected at 1, 3, 6, 9, 12 and 15 h after corylin oral gavage, and the serum samples were then separated therefrom. Each serum sample (100 μl) was mixed with ice-cold acetonitrile (150 μl) at 4° C. for 1 hour, and then centrifuged at 15,000×g and 4° C. for 15 min. After centrifugation, the supernatant (150 μl) was harvested, and 150 μl ddH2O was added. The resulting mixture was analyzed by a LC/FTMS system.

p21 = test: Western blot of p21 expression in HUVECs; assay type: cell-based, human; details: late stage HUVECs (PDL9)
Experimental: HUVECs were cultured in M199 medium supplemented with 4-(2-hydroxyethyl)-1-piperazineethanesulfonic acid (HEPES), endothelial cell growth supplement (ECGS; Millipore), heparin, NaHCO3, L-glutamine, sodium pyruvate, and 20% fetal bovine serum (FBS; final concentration). HaCaT cells were cultured in DMEM supplemented with 10% FBS and 2 mM glutamine. The cells were grown in an atmosphere of 5% CO2 at 37° C., and passaged to maintain under 90% confluency. The cells were propagated until senescence, and those in every passage were collected for further analysis, numbers of which were determined when sub-cultured. Population doublings (PDs) were estimated following the equation: PDL=3.32 (log(total viable cells at harvest/total viable cells at seeding). The cells were harvested and lysed in RIPA lysis buffer containing 1% of Triton X-100 and a protease inhibitor cocktail, and total protein concentrations were measured with a protein assay kit. Proteins in the samples of the lysates with the same amounts of total protein were separated by sodium dodecyl sulfate polyacrylamide gel electrophoresis (SDS-PAGE) (10% polyacrylamide gels) and analyzed by immunoblotting. Primary antibodies against p21 and β-actin were applied to detect the corresponding proteins. […] Protein quantification was performed by software.

aged C57BL/6J mice = test: Survival of aged mice fed HFD with or without corylin; assay type: in vivo, mouse; details: corylin supplement 0.1% (w/w) in HFD
Experimental: as §1, §2

concentration at 1 h ([7]; male, C57BL/6J, mouse, serum, 1 hour after oral gavage) | concentration at 3 h ([7]; male, C57BL/6J, mouse, serum, 3 hours after oral gavage) | concentration at 6 h ([7]; male, C57BL/6J, mouse, serum, 6 hours after oral gavage) | concentration at 9 h ([7]; male, C57BL/6J, mouse, serum, 9 hours after oral gavage) | concentration at 12 h ([7]; male, C57BL/6J, mouse, serum, 12 hours after oral gavage) | concentration at 15 h ([7]; male, C57BL/6J, mouse, serum, 15 hours after oral gavage) | concentration at 12 h ([7]; 1 hour after oral gavage) | concentration at 12 h ([7]; 15 hours after oral gavage) | Structure (SMILES) | UVB-induced DNA breakage (HaCaT cells [1]) | population doubling level (PDL) of HUVECs (HUVECs [2]) | number of SA-β-gal-positive senescent cells (HUVECs [3]) | survival rate of the cell under UVB irradiation (HaCaT cells [4]) | trajectory of body weight vs HFD group [5] | trajectory of food intake vs HFD group [5] | intracellular NAD+ level (HaCaT cells [6]) | expression level of p21 (p21) | lifespan of aged mice fed on high fat diet (aged C57BL/6J mice)
680 nM | 500 nM | 490 nM | 540 nM | 390 nM | 260 nM | 680 nM | 260 nM | CC1(C)C=Cc2cc(-c3coc4cc(O)ccc4c3=O)ccc2O1 [corylin] | completely suppressed | increase | decrease | significantly increased | did not diverge | did not diverge | elevate | decreased | significantly increased
– | – | – | – | – | – | – | – | CC(C)=CCc1cc(-c2coc3cc(O)ccc3c2=O)ccc1O [neobavaisoflavone] | completely suppressed | – | – | significantly increased | – | – | elevate | – | –
